# Measurements published in US11306078B2, “Piperidine CXCR7 receptor modulators” (IDORSIA PHARMACEUTICALS LTD., priority 2016, dated 2022).
# Target: human chemokine receptor CXCR7 (Homo sapiens (Human), UniProt P25106)
# Assay: Tango CXCR7-bla U2OS beta-arrestin recruitment assay (beta-lactamase reporter, FRET), antagonism of CXCL12/SDF1-α;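 note: compounds preincubated 15 min before CXCL12 addition, then 22 h at 37 °C, FRET emission ratio read with CCF4-AM substrate after 2 h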
# Assay type: cell-based
# Details: antagonistic effect on CXCR7; Tango CXCR7-bla U2OS cells, CXCL12/SDF1-α at its EC80
# Chain of human chemokine receptor CXCR7 (P25106 whole entry): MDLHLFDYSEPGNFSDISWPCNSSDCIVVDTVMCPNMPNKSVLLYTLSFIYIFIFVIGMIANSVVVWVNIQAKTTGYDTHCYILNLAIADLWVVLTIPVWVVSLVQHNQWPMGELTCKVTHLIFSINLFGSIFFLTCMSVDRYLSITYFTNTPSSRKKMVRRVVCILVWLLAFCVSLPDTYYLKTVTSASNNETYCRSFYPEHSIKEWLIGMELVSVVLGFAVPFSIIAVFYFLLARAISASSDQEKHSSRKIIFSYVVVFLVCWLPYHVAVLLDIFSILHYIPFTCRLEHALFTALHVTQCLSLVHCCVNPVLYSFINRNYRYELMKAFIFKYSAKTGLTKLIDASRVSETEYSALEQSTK
row,Compound,IC50 [nM]
1,COc1ccccc1C(C)NC(=O)[C@H]1CN(CC2CC2)CC[C@@H]1NC(=O)c1cc(-c2ccc(F)cc2F)on1 (some centres unmarked) [Example 4.072],16
2,CCOC(=O)[C@H](NC(=O)[C@H]1CN(CC2CC2)CCC1NC(=O)c1cc(-c2ccc(F)cc2F)on1)c1ccccc1 (some centres unmarked) [Example 4.073],173
3,COc1ccccc1C1(NC(=O)[C@H]2CN(CC3CC3)CC[C@@H]2NC(=O)c2cc(-c3ccc(F)cc3F)on2)CC1 [Example 4.074],27
4,C[C@@H](NC(=O)[C@H]1CN(CC2CC2)CC[C@@H]1NC(=O)c1cc(-c2ccc(F)cc2F)on1)c1cccc(Br)c1 [Example 4.075],2
5,O=C(N[C@H]1CCN(CC2CC2)C[C@@H]1C(=O)NC1(c2ccccc2O)CC1)c1cc(-c2ccc(F)cc2F)on1 [Example 4.076],97
6,O=C(N[C@H]1CCN(CC2CC2)C[C@@H]1C(=O)NC1(c2nccc[n+]2[O-])CC1)c1cc(-c2ccc(F)cc2F)on1 [Example 4.077],4
7,O=C(NC1CCN(CC2CC2)CC1C(=O)N1CCCC1c1ncccn1)c1cc(-c2ccc(F)cc2F)on1 (centres unmarked) [Example 4.078],64
8,O=C(N[C@H]1CCN(CC2CC2)C[C@@H]1C(=O)N1CCCC1c1ncccn1)c1cc(-c2ccc(F)cc2F)on1 (some centres unmarked) [Example 4.078b],15
9,O=C(N[C@H]1CCN(CC2CC2)C[C@@H]1C(=O)N1CC[C@@H]1c1ncccn1)c1cc(-c2ccc(F)cc2F)on1 [Example 4.079a],186
10,O=C(N[C@@H]1CCN(CC2CC2)C[C@H]1C(=O)N1CC[C@@H]1c1ncccn1)c1cc(-c2ccc(F)cc2F)on1 [Example 4.079b],18
11,CC(NC(=O)[C@H]1CN(CC2CC2)CC[C@@H]1NC(=O)c1cc(-c2ccc(F)cc2F)on1)c1ncccn1 (some centres unmarked) [Example 4.080a],851
12,CC(NC(=O)[C@@H]1CN(CC2CC2)CC[C@H]1NC(=O)c1cc(-c2ccc(F)cc2F)on1)c1ncccn1 (some centres unmarked) [Example 4.080b],15
13,O=C(N[C@H]1CCN(CC2CC2)C[C@@H]1C(=O)NC1(c2cncnc2)CC1)c1cc(-c2ccc(F)cc2F)on1 [Example 4.081],426
14,O=C(N[C@H]1CCN(C2CCC2)C[C@@H]1C(=O)NC1(c2ncccc2F)CC1)c1cc(-c2ccc(F)cc2F)on1 [Example 4.082],20
15,CC(C)(NC(=O)[C@H]1CN(C2CCC2)CC[C@@H]1NC(=O)c1cc(-c2ccc(F)cc2F)on1)c1ncccn1 [Example 4.083],11
16,C[C@@H](NC(=O)[C@H]1CN(C2CCC2)CC[C@@H]1NC(=O)c1cc(-c2ccc(F)cc2F)on1)c1ncccn1 [Example 4.084],232
17,C[C@@H](NC(=O)[C@H]1CN(C2CCC2)CC[C@@H]1NC(=O)c1cc(-c2ccc(F)cc2F)on1)c1ncccn1 [Example 4.084b],77
18,O=C(N[C@@H]1CCN(C2CCC2)C[C@H]1C(=O)NC1(Cc2ccccc2)COC1)c1cc(-c2ccc(F)cc2F)on1 [Example 4.085],61
19,Cc1cccnc1C(C)(C)CNC(=O)[C@@H]1CN(C2CCC2)CC[C@H]1NC(=O)c1cc(-c2ccc(F)cc2F)on1 [Example 4.086],472
20,CC(C)(CNC(=O)[C@@H]1CN(C2CCC2)CC[C@H]1NC(=O)c1cc(-c2ccc(F)cc2F)on1)c1ccccn1 [Example 4.087],342
21,Cc1ccccc1C1(NC(=O)[C@H]2CN(C3CCC3)CC[C@@H]2NC(=O)c2cc(-c3ccc(F)cc3F)on2)CC1 [Example 4.088],138
22,O=C(N[C@@H]1CCN(C2CCC2)C[C@H]1C(=O)NC1(c2ccc(F)cc2)COC1)c1cc(-c2ccc(F)cc2F)on1 [Example 4.089],299
23,CC(C)(CNC(=O)[C@@H]1CN(C2CCC2)CC[C@H]1NC(=O)c1cc(-c2ccc(F)cc2F)on1)c1ccccc1Cl [Example 4.091],134
24,O=C(N[C@@H]1CCN(C2CCC2)C[C@H]1C(=O)NCC1(c2ccc(Cl)cc2)CC1)c1cc(-c2ccc(F)cc2F)on1 [Example 4.092],126

row,Compound,IC50 [nM]
1,O=C(N[C@@H]1CCN(C2CCC2)C[C@H]1C(=O)NCC1(c2ccccn2)CC1)c1cc(-c2ccc(F)cc2F)on1 [Example 4.093],165
2,O=C(N[C@@H]1CCN(C2CCC2)C[C@H]1C(=O)NC1(c2cccc(Cl)c2)COC1)c1cc(-c2ccc(F)cc2F)on1 [Example 4.094],201
3,CCN1CC[C@H](NC(=O)c2cc(-c3ccc(F)cc3F)on2)[C@@H](C(=O)N[C@H](C)c2cccc(C)n2)C1 [Example 4.095],57
4,CCN1CC[C@H](NC(=O)c2cc(-c3ccc(F)cc3F)on2)[C@@H](C(=O)NC(C)(C)c2ncccn2)C1 [Example 4.096],33
5,O=C(N[C@H]1CCN(C2CCC2)C[C@@H]1C(=O)NC1(c2cccc(Cl)c2)COC1)c1cc(-c2ccc(F)cc2F)on1 [Example 4.097],80
6,C[C@@H](NC(=O)[C@H]1CN(C2CCC2)CC[C@@H]1NC(=O)c1cc(-c2ccc(F)cc2F)on1)c1ncccc1F [Example 4.098],18
7,C[C@@H](NC(=O)[C@H]1CN(C2CCC2)CC[C@@H]1NC(=O)c1cc(-c2ccc(F)cc2F)on1)c1ncccc1F [Example 4.098a],12
8,O=C(N[C@@H]1CCN(CC2CC2)C[C@H]1C(=O)NCc1ncccn1)c1cc(-c2ccc(F)cc2F)on1 [Example 4.099],852
9,CC(C)(C)N1CC[C@@H](NC(=O)c2cc(-c3ccc(F)cc3F)on2)[C@H](C(=O)NC2(c3ncccn3)CC2)C1 [Example 4.101],71
10,CC(C)(C)N1CC[C@@H](NC(=O)c2cc(-c3ccc(F)cc3F)on2)[C@H](C(=O)NC2(c3ncccn3)CC2)C1 [Example 4.101a],18
11,CC(C)(C)N1CC[C@H](NC(=O)c2cc(-c3ccc(F)cc3F)on2)[C@@H](C(=O)NC2(c3ncccn3)CC2)C1 [Example 4.101b],712
12,CC(C)(NC(=O)[C@H]1CN(CC2CC2)CC[C@@H]1NC(=O)c1cc(-c2ccc(F)cc2F)on1)c1ncccn1 [Example 4.102],1
13,"O=C(N[C@H]1CCN(CC2CC2)C[C@@H]1C(=O)NC1(c2ncccn2)CC1)c1noc(-c2ccc(F)cc2)c1F [Example 7.001, (3S,4S)-1-Cyclopropylmethyl-4-{[4-fluoro-5-(4-fluoro-phenyl)-isoxazole-3-carbonyl]-amino}-piperidine-3-carboxylic Acid (1-pyrimidin-2-yl-cyclopropyl)-amide]",32
14,O=C(N[C@H]1CCN(CC2CC2)C[C@@H]1C(=O)NC1(c2ncccn2)CC1)c1nc(-c2ccc(F)cc2F)co1 [Example 7.01],60
15,"Cc1ccccc1-c1cc(C(=O)N[C@H]2CCN(CC3CC3)C[C@@H]2C(=O)NC2(c3ncccn3)CC2)no1 [Example 7.002, (3S,4S)-1-Cyclopropylmethyl-4-[(5-o-tolyl-isoxazole-3-carbonyl)-amino]-piperidine-3-carboxylic acid (1-pyrimidin-2-yl-cyclopropyl)-amide]",308
16,"Cc1ccc(-c2cc(C(=O)N[C@H]3CCN(CC4CC4)C[C@@H]3C(=O)NC3(c4ncccn4)CC3)no2)cc1C [Example 7.003, (3S,4S)-1-Cyclopropylmethyl-4-{[5-(3,4-dimethyl-phenyl)-isoxazole-3-carbonyl]-amino}-piperidine-3-carboxylic acid (1-pyrimidin-2-yl-cyclopropyl)-amide]",210
17,"O=C(N[C@H]1CCN(CC2CC2)C[C@@H]1C(=O)NC1(c2ncccn2)CC1)c1cn(-c2ccc(F)cc2F)nn1 [Example 7.004, (3S,4S)-1-Cyclopropylmethyl-4-{[1-(2,4-difluoro-phenyl)-1H-[1,2,3]triazole-4-carbonyl]-amino}-piperidine-3-carboxylic acid (1-pyrimidin-2-yl-cyclopropyl)-amide]",64
18,"Cc1ccc(-c2cc(C(=O)N[C@H]3CCN(CC4CC4)C[C@@H]3C(=O)NC3(c4ncccn4)CC3)no2)c(C)c1 [Example 7.005, (3S,4S)-1-Cyclopropylmethyl-4-{[5-(2,4-dimethyl-phenyl)-isoxazole-3-carbonyl]-amino}-piperidine-3-carboxylic acid (1-pyrimidin-2-yl-cyclopropyl)-amide]",36
19,"O=C(N[C@H]1CCN(CC2CC2)C[C@@H]1C(=O)NC1(c2ncccn2)CC1)c1cc(-c2ccc(F)cc2F)no1 [Example 7.006, (3S,4S)-1-Cyclopropylmethyl-4-{[3-(2,4-difluoro-phenyl)-isoxazole-5-carbonyl]-amino}-piperidine-3-carboxylic acid (1-pyrimidin-2-yl-cyclopropyl)-amide]",8
20,"O=C(N[C@H]1CCN(CC2CC2)C[C@@H]1C(=O)NC1(c2ncccn2)CC1)c1ncc(-c2ccc(F)cc2)o1 [Example 7.007, (3S,4S)-1-Cyclopropylmethyl-4-{[5-(4-fluoro-phenyl)-oxazole-2-carbonyl]-amino}-piperidine-3-carboxylic acid (1-pyrimidin-2-yl-cyclopropyl)-amide]",140
21,"O=C(N[C@H]1CCN(CC2CC2)C[C@@H]1C(=O)NC1(c2ncccn2)CC1)c1noc(-c2ccc(F)cc2F)n1 [Example 7.008, (3S,4S)-1-Cyclopropylmethyl-4-{[5-(2,4-difluoro-phenyl)-[1,2,4]oxadiazole-3-carbonyl]-amino}-piperidine-3-carboxylic acid (1-pyrimidin-2-yl-cyclopropyl)-amide]",51
22,"N#Cc1ccc(-c2cc(C(=O)N[C@H]3CCN(CC4CC4)C[C@@H]3C(=O)NC3(c4ncccn4)CC3)no2)cc1 [Example 7.009, (3S,4S)-4-{[5-(4-Cyano-phenyl)-isoxazole-3-carbonyl]-amino}-1-cyclopropylmethyl-piperidine-3-carboxylic acid (1-pyrimidin-2-yl-cyclopropyl)-amide]",240
23,"O=C(N[C@H]1CCN(CC2CC2)C[C@@H]1C(=O)NC1(c2ncccn2)CC1)c1ncc(-c2ccc(F)cc2F)o1 [Example 7.011, (3S,4S)-1-Cyclopropylmethyl-4-{[5-(2,4-difluoro-phenyl)-oxazole-2-carbonyl]-amino}-piperidine-3-carboxylic acid (1-pyrimidin-2-yl-cyclopropyl)-amide]",78
